Patent US20190307728A1, “METHODS OF TREATMENT WITH A 2,4,5-TRISUBSTITUTED 1,2,4-TRIAZOLONE” (Bayer Pharma Aktiengesellschaft, priority 2018, published 2019)

Legend:
Assay in all cases: Cell proliferation panel assay
Format in all cases: cell-based
Colo 320DM = details: Homo sapiens, 72 h, Colorectal carcinoma, 3-day incubation, read-out: Cell Count IC50
A498 = details: Homo sapiens, 72 h, A498, Renal cell carcinoma, 3-day incubation
Description: (§1) Cells were grown in RPMI 1640, 10% FBS, 2 mM L-alanyl-L-glutamine, 1 mM Na pyruvate or a special medium. Cells were seeded into 384-well plates and incubated in a humidified atmosphere of 5% CO2 at 37° C. Compounds were added the day following cell seeding. At the same time, a time zero untreated cell plate was generated. After a 3-day incubation period, cells were fixed and stained to allow fluorescence imaging of nuclei.
(§2) Compounds were serially diluted in half-log steps from the highest test concentration 10 μM, and assayed over 10 concentrations with a maximum assay concentration of 0.1% DMSO. Automated fluorescence microscopy was carried out using a Molecular Devices ImageXpress Micro XL high-content imager, and images were collected with a 4× objective. 16-bit TIFF images were acquired and analyzed with MetaXpress 5.1.0.41 software.
(§3) Cell proliferation was measured by the fluorescence intensity of an incorporated nuclear dye. The output is referred to as the relative cell count, where the measured nuclear intensity is transformed to percent of control (POC) using the following formula: […]
(§4) Cellular response parameters were calculated using nonlinear regression to a sigmoidal single-site dose response model:
(§5) Where y is a response measured at concentration x, A and B are the lower and upper limits of the response, C is the concentration at the response midpoint (EC50), and D is the Hill Slope (Fallahi-Sichani, M., S. Honardejad, L. M. Heiser, J. W. Gray, and P. K. Sorger (2013). Metrics other than potency reveal systematic variation in responses to cancer drugs. Nat. Chem. Biol. 9: 708-714.).
(§6) Cell count IC50 is the test compound concentration at 50% of maximal possible response. EC50 is the test compound concentration at the curve inflection point or half the effective response (parameter C of the fitted curve solution).

PANC-1 = details: Homo sapiens, 72 h, PANC-1, Pancreatic cancer, 3-day incubation
Description: as §1, §2, §3, §4, §5, §6

ARH-77 = details: Homo sapiens, 72 h; ARH-77, Leukemia, 3-day incubation; read-out: Cell Count EC50
CEM-C1 = details: 72 h; CEM-C1, Leukemia, 3-day incubation; read-out: Cell Count EC50
CaOV3 = details: Homo sapiens, Caov-3, 72 h; CaOV3, Ovarian carcinoma, 3-day incubation; read-out: Cell Count IC50
DMS114 = details: Homo sapiens, DMS-114, 72 h; DMS114, Lung cancer, 3-day incubation; read-out: Cell Count IC50
G-401 = details: Homo sapiens, 72 h; G-401, Kidney cancer, 3-day incubation; read-out: Cell Count IC50
HT-29 = details: Homo sapiens, 72 h; HT-29, Colorectal carcinoma, 3-day incubation; read-out: Cell Count IC50
MEG01 = details: Homo sapiens, MEG-01, 72 h; MEG01, Leukemia, 3-day incubation; read-out: Cell Count EC50
MHH-PREB-1 = details: Homo sapiens, 72 h; MHH-PREB-1, Lymphoma, 3-day incubation; read-out: Cell Count IC50
Mia PaCa-2 = details: Homo sapiens, 72 h; Mia PaCa-2, Pancreatic cancer, 3-day incubation; read-out: Cell Count IC50
MV-4-11 = details: Homo sapiens, MV4-11, 72 h; MV-4-11, Leukemia, 3-day incubation; read-out: Cell Count IC50
SU.86.86 = details: Homo sapiens, 72 h; SU.86.86, Pancreatic cancer, 3-day incubation; read-out: Cell Count IC50
U266B1 = details: 72 h; U266B1, Multiple Myeloma, 3-day incubation; read-out: Cell Count IC50

- IC50 (Colo 320DM): 5.1 nM
- EC50 (PANC-1; read-out: Cell Count EC50): 3.5 nM
- IC50 (PANC-1; read-out: Cell Count IC50): > 10000 nM
- IC50 (HT-29): 11 nM
- IC50 (Mia PaCa-2): > 10000 nM
- IC50 (MV-4-11): 1.2 nM
- IC50 (U266B1): > 10000 nM
SMILES: CCn1c(CO)nn(-c2cc(O[C@@H](C)C(F)(F)F)c(C(=O)Nc3c(F)cccc3Cl)cc2F)c1=O [Example 1, N-(2-chloro-6-fluorophenyl)-4-[4-ethyl-3-(hydroxymethyl)-5-oxo-4,5-dihydro-1H-1,2,4-triazol-1-yl]-5-fluoro-2-{[(2S)-1,1,1-trifluoropropan-2-yl]oxy}benzamide]
- EC50 (A498; read-out: Cell Count EC50): > 10000 nM
- IC50 (A498; read-out: Cell Count IC50): > 10000 nM
- EC50 (ARH-77): 0.92 nM
- EC50 (CEM-C1): 0.91 nM
- IC50 (CaOV3): > 10000 nM
- IC50 (DMS114): > 10000 nM
- IC50 (G-401): > 10000 nM
- EC50 (MEG01): 0.66 nM
- IC50 (MHH-PREB-1): 0.83 nM
- IC50 (SU.86.86): > 10000 nM
